Assay results published in ChEMBL document CHEMBL1137970, “N,N-Dialkylated 4-(4-arylsulfonylpiperazine-1-carbonyl)-benzamidines and 4-((4-arylsulfonyl)-2-oxo-piperazin-1-ylmethyl)-benzamidines as potent factor Xa inhibitors” (Bioorg Med Chem Lett, 2004).

test system: not listed separately; test: Half life in rats; format: ADME, organism-based; details: rat, in vivo

SMILES	half-life [h]
CN1CCN=C1c1ccc(C(=O)N2CCN(S(=O)(=O)c3cc4cc(Cl)ccc4[nH]3)CC2)cc1	7.8

test system: not listed separately; test: Volume of distribution in rats; format: ADME, organism-based; details: rat, in vivo

SMILES	Vd [L/kg]
CN1CCN=C1c1ccc(C(=O)N2CCN(S(=O)(=O)c3cc4cc(Cl)ccc4[nH]3)CC2)cc1	28.9

test system: not listed separately; test: Oral bioavailability in rat; format: ADME, organism-based; details: in vivo

SMILES	bioavailability [%]
CN1CCN=C1c1ccc(C(=O)N2CCN(S(=O)(=O)c3cc4cc(Cl)ccc4[nH]3)CC2)cc1	1.4
CN(C)C(=N)c1ccc(CN2CCN(S(=O)(=O)c3cc4cc(Cl)ccc4[nH]3)CC2=O)cc1	4.1
CN(C)C(=N)c1ccc(CN2CCN(S(=O)(=O)c3cc4ccc(Cl)cc4s3)CC2=O)cc1	< 1

test system: not listed separately; test: Plasma clearance in rats; format: ADME, organism-based; details: rat

SMILES	clearance [mL/min/kg]
CN1CCN=C1c1ccc(C(=O)N2CCN(S(=O)(=O)c3cc4cc(Cl)ccc4[nH]3)CC2)cc1	42.9

molecular target: Coagulation factor X (Homo sapiens, UniProt P00742); test: In vitro inhibitory activity against Coagulation factor X was determined; details: not given
Sequence (P00742 41-179 limits assumed): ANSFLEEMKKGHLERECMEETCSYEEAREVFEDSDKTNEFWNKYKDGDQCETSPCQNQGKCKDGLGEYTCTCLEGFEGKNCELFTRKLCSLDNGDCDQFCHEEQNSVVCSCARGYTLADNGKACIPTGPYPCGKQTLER
Sequence (P00742 235-488 limits assumed): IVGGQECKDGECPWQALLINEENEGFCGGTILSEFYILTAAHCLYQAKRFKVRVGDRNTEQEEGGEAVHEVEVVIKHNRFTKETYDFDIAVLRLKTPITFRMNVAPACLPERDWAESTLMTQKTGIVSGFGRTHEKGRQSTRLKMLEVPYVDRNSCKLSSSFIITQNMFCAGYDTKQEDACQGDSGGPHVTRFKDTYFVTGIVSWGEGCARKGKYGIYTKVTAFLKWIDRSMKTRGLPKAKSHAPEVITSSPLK

SMILES	IC50 [nM]
CN1CCN=C1c1ccc(C(=O)N2CCN(S(=O)(=O)c3cc4cc(Cl)ccc4[nH]3)CC2CC(=O)N2CCCCC2)cc1 (stereo not given)	7
CN1CCN=C1c1ccc(C(=O)N2CCN(S(=O)(=O)c3cc4ccc(Cl)cc4s3)CC2CC(=O)O)cc1 (stereo not given)	29
C#CCN(C)C(=O)CC1CN(S(=O)(=O)c2cc3ccc(Cl)cc3s2)CCN1C(=O)c1ccc(C2=NCCN2C)cc1 (stereo not given)	19
N=C(c1ccc(C(=O)N2CCN(S(=O)(=O)c3cc4cc(Cl)ccc4[nH]3)CC2)cc1)N1CCCC1	84
CN(C)C(=O)CC1CN(S(=O)(=O)c2cc3ccc(Cl)cc3s2)CCN1C(=O)c1ccc(C2=NCCN2C)cc1 (stereo not given)	7
CN1CCN=C1c1ccc(C(=O)N2CCN(S(=O)(=O)c3cc4cc(Cl)ccc4[nH]3)CC2CC(=O)O)cc1 (stereo not given)	41
CN(C)C(=N)c1ccc(C(=O)N2CCN(S(=O)(=O)c3cc4cc(Cl)ccc4[nH]3)CC2)cc1	20
CN1CCN=C1c1ccc(C(=O)N2CCN(S(=O)(=O)c3cc4cc(Cl)ccc4[nH]3)CC2CC(N)=O)cc1 (stereo not given)	18
N=C(c1ccc(CN2CCN(S(=O)(=O)c3cc4cc(Cl)ccc4[nH]3)CC2=O)cc1)N1CCCC1	240
CN1CCN=C1c1ccc(C(=O)N2CCN(S(=O)(=O)c3cc4ccc(Cl)cc4[nH]3)CC2)cc1	590
CN1CCN=C1c1ccc(C(=O)N2CCN(S(=O)(=O)c3cc4ccc(Cl)cc4s3)CC2)cc1	9
CN1CCN=C1c1ccc(C(=O)N2CCN(S(=O)(=O)c3cc4cc(Cl)ccc4s3)CC2)cc1	270
N=C(c1ccc(CN2CCN(S(=O)(=O)c3cc4ccc(Cl)cc4s3)CC2=O)cc1)N1CCC1	11
CN1CCN=C1c1ccc(CN2CCN(S(=O)(=O)c3cc4cc(Cl)ccc4[nH]3)CC2=O)cc1	57
N=C(c1ccc(C(=O)N2CCN(S(=O)(=O)c3ccc4cc(Br)ccc4c3)CC2)cc1)N1CCCCC1	160
CN1CCN=C1c1ccc(CN2CCN(S(=O)(=O)c3cc4ccc(Cl)cc4s3)CC2=O)cc1	45
CN1CCN=C1c1ccc(C(=O)N2CCN(S(=O)(=O)c3cc4ccc(Cl)cc4s3)CC2CC(=O)N2CCC(C(=O)O)CC2)cc1 (stereo not given)	8
CNC(=O)CC1CN(S(=O)(=O)c2cc3cc(Cl)ccc3[nH]2)CCN1C(=O)c1ccc(C2=NCCN2C)cc1 (stereo not given)	11
N=C(c1ccc(CN2CCN(S(=O)(=O)c3cc4cc(Cl)ccc4[nH]3)CC2=O)cc1)N1CCCCC1	150
CN1CCN=C1c1ccc(C(=O)N2CCN(S(=O)(=O)c3cc4ccc(Cl)cc4s3)CC2CC(=O)N2CCCC2)cc1 (stereo not given)	6
N=C(c1ccc(C(=O)N2CCN(S(=O)(=O)c3cc4ccc(Cl)cc4s3)CC2)cc1)N1CCCCC1	71

SMILES	IC50 [nM]
N=C(c1ccc(CN2CCN(S(=O)(=O)c3cc4ccc(Cl)cc4s3)CC2=O)cc1)N1CCCCC1	100
CN(C)C(=N)c1ccc(CN2CCN(S(=O)(=O)c3cc4cc(Cl)ccc4[nH]3)CC2=O)cc1	37
CN1CCN=C1c1ccc(C(=O)N2CCN(S(=O)(=O)c3cc4ccc(Cl)cc4s3)CC2CC(=O)N2CCN(c3ccncc3)CC2)cc1 (stereo not given)	8
N=C(c1ccc(C(=O)N2CCN(S(=O)(=O)c3cc4cc(Cl)ccc4[nH]3)CC2)cc1)N1CCC1	24
CCN1CCN=C1c1ccc(C(=O)N2CCN(S(=O)(=O)c3cc4ccc(Cl)cc4s3)CC2)cc1	36
CN1CCN=C1c1ccc(C(=O)N2CCN(S(=O)(=O)c3cc4cc(Cl)ccc4[nH]3)CC2CC(=O)N2CCOCC2)cc1 (stereo not given)	11
N=C(c1ccc(C(=O)N2CCN(S(=O)(=O)c3ccc4cc(Br)ccc4c3)CC2)cc1)N1CCCC1	390
CN1CCN=C1c1ccc(C(=O)N2CCN(S(=O)(=O)c3cc4cc(Cl)ccc4[nH]3)CC2C(=O)O)cc1 (stereo not given)	12
CN1CCN=C1c1ccc(C(=O)N2CCN(S(=O)(=O)c3cc4cc(Cl)ccc4[nH]3)CC2CC(=O)N2CCCC2)cc1 (stereo not given)	7
N=C(c1ccc(C(=O)N2CCN(S(=O)(=O)c3ccc4cc(Br)ccc4c3)CC2)cc1)N1CCOCC1	640
N=C(c1ccc(CN2CCN(S(=O)(=O)c3cc4cc(Cl)ccc4[nH]3)CC2=O)cc1)N1CCC1	8
N=C(N)c1ccc(C(=O)N2CCN(S(=O)(=O)c3ccc4cc(Br)ccc4c3)CC2)cc1	64
CCN1CCN=C1c1ccc(C(=O)N2CCN(S(=O)(=O)c3ccc4cc(Br)ccc4c3)CC2)cc1	67
COC(=O)C1CN(S(=O)(=O)c2cc3cc(Cl)ccc3[nH]2)CCN1C(=O)c1ccc(C2=NCCN2C)cc1 (stereo not given)	27
COC(=O)CC1CN(S(=O)(=O)c2cc3ccc(Cl)cc3s2)CCN1C(=O)c1ccc(C2=NCCN2C)cc1 (stereo not given)	13
N=C(c1ccc(CN2CCN(S(=O)(=O)c3cc4ccc(Cl)cc4s3)CC2=O)cc1)N1CCCC1	140
CN(C)C(=N)c1ccc(C(=O)N2CCN(S(=O)(=O)c3cc4ccc(Cl)cc4s3)CC2)cc1	27
CN1CCN=C1c1ccc(C(=O)N2CCN(S(=O)(=O)c3cc4ccc(Cl)cc4s3)CC2CC(=O)N2CCC2)cc1 (stereo not given)	10
CN1CCN=C1c1ccc(C(=O)N2CCN(S(=O)(=O)c3cc4cc(Cl)ccc4[nH]3)CC2CC(=O)N2CCN(c3ccncc3)CC2)cc1 (stereo not given)	8
CN1CCCN=C1c1ccc(C(=O)N2CCN(S(=O)(=O)c3ccc4cc(Br)ccc4c3)CC2)cc1	430
C#CCN(C)C(=O)CC1CN(S(=O)(=O)c2cc3cc(Cl)ccc3[nH]2)CCN1C(=O)c1ccc(C2=NCCN2C)cc1 (stereo not given)	14

SMILES	IC50 [nM]
CN1CCN=C1c1ccc(C(=O)N2CCN(C(=O)c3cc4cc(Cl)ccc4[nH]3)CC2)cc1	> 11000
COC(=O)C1CCN(C(=O)CC2CN(S(=O)(=O)c3cc4ccc(Cl)cc4s3)CCN2C(=O)c2ccc(C3=NCCN3C)cc2)CC1 (stereo not given)	8
O=C(c1ccc(C2=NCCCN2)cc1)N1CCN(S(=O)(=O)c2ccc3cc(Br)ccc3c2)CC1	1300
N=C(c1ccc(C(=O)N2CCN(S(=O)(=O)c3cc4ccc(Cl)cc4s3)CC2)cc1)N1CCC1	25
COC(=O)CC1CN(S(=O)(=O)c2cc3cc(Cl)ccc3[nH]2)CCN1C(=O)c1ccc(C2=NCCN2C)cc1 (stereo not given)	3
CN1CCN=C1c1ccc(C(=O)N2CCN(S(=O)(=O)c3cc4ccc(Cl)cc4s3)CC2CC(=O)N2CCOCC2)cc1 (stereo not given)	15
CCN(C)C(=N)c1ccc(C(=O)N2CCN(S(=O)(=O)c3cc4ccc(Cl)cc4s3)CC2)cc1	90
CN(C)C(=N)c1ccc(CN2CCN(S(=O)(=O)c3cc4ccc(Cl)cc4s3)CC2=O)cc1	30
CN1CCN=C1c1ccc(C(=O)N2CCN(S(=O)(=O)c3cc4ccc(Cl)cc4s3)CC2CC(=O)N2CCCCC2)cc1 (stereo not given)	6
O=C(c1ccc(C2=NCCN2)cc1)N1CCN(S(=O)(=O)c2ccc3cc(Br)ccc3c2)CC1	530
N=C(c1ccc(C(=O)N2CCN(S(=O)(=O)c3cc4cc(Cl)ccc4[nH]3)CC2)cc1)N1CCCCC1	120
CNC(=N)c1ccc(C(=O)N2CCN(S(=O)(=O)c3ccc4cc(Br)ccc4c3)CC2)cc1	230
CCN1CCN=C1c1ccc(C(=O)N2CCN(S(=O)(=O)c3cc4cc(Cl)ccc4[nH]3)CC2)cc1	12
CN(C)C(=N)c1ccc(C(=O)N2CCN(S(=O)(=O)c3ccc4cc(Br)ccc4c3)CC2)cc1	230
CCN(C)C(=N)c1ccc(C(=O)N2CCN(S(=O)(=O)c3cc4cc(Cl)ccc4[nH]3)CC2)cc1	27
CN(C)C(=O)CC1CN(S(=O)(=O)c2cc3cc(Cl)ccc3[nH]2)CCN1C(=O)c1ccc(C2=NCCN2C)cc1 (stereo not given)	10
N=C(c1ccc(C(=O)N2CCN(S(=O)(=O)c3cc4ccc(Cl)cc4s3)CC2)cc1)N1CCCC1	70
CN1CCN=C1c1ccc(C(=O)N2CCN(S(=O)(=O)c3ccc4cc(Br)ccc4c3)CC2)cc1	31
CN1CCN=C1c1ccc(C(=O)N2CCN(S(=O)(=O)c3cc4cc(Cl)ccc4[nH]3)CC2CC(=O)N2CCC2)cc1 (stereo not given)	5

molecular target: Kallikrein-1 (Homo sapiens, UniProt P06870); test: In vitro inhibitory activity against kallikrein was determined; details: not given
Sequence (P06870 whole entry): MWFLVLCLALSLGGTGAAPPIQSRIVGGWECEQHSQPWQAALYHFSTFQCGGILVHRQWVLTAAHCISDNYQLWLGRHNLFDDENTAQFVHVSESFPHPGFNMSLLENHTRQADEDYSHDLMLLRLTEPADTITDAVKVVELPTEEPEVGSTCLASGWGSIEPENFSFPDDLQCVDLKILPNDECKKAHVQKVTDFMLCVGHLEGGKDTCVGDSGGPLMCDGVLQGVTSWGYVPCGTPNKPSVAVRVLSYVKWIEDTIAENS

SMILES	IC50 [nM]
CN1CCN=C1c1ccc(C(=O)N2CCN(S(=O)(=O)c3cc4cc(Cl)ccc4[nH]3)CC2)cc1	5800

molecular target: Prothrombin (Homo sapiens, UniProt P00734); details: not given

SMILES	IC50 [nM]
CN1CCN=C1c1ccc(C(=O)N2CCN(S(=O)(=O)c3cc4ccc(Cl)cc4s3)CC2)cc1	> 10
CN1CCN=C1c1ccc(C(=O)N2CCN(S(=O)(=O)c3cc4ccc(Cl)cc4s3)CC2CC(=O)N2CCOCC2)cc1 (stereo not given)	3.2
